Measured values from PubChem BioAssay AID330 (DTP/NCI, 2004).
Several values for one entry are separate records, joined by “and”; a condition that tells them apart may be missing. Equal entries are not always repeated. Toxic doses and inconclusive results are not listed.

Tested on: P388 leukemia ip, CD2F1 mice, survival T/C
Assay: NCI In Vivo Anticancer Drug Screen. Data for tumor model P388 Leukemia (intraperitoneal) in CD2F1 (CDF1) mice
Details: endpoint: median survival time, higher = longer survival
Summary of the method: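 Mice carrying the transplanted tumor received test compound or vehicle. Survival was recorded in each group, and the value is the treated-group measurement divided by that of the vehicle-treated control group.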

[1] = dose: 50.0 mg/kg/injection, schedule: Q01DX009 (ip), vehicle: Klucel (hydroxypropylcellulose) (HPC)
[2] = dose: 50.0 mg/kg/injection, schedule: Q01DX005 (ip), vehicle: saline with Tween-80
[3] = dose: 100.0 mg/kg/injection, schedule: Q01DX005 (ip), vehicle: saline with Tween-80
[4] = dose: 200.0 mg/kg/injection, schedule: Q01DX005 (ip), vehicle: saline with Tween-80

With COc1ccc2c(c1OC)C(=O)N1C2=Cc2c(cc3c(c2OC)OCO3)CC1N(C)C (stereo unspecified) the T/C (dose: 60.0 mg/kg/injection, schedule: Q01DX005 (ip), vehicle: saline) was 103 % of control and the T/C (dose: 120.0 mg/kg/injection, schedule: Q01DX005 (ip), vehicle: saline) was 100 % of control.

CCCCCCCCCCCC(C)NCc1ccccc1 (stereo unspecified) was tested, and the T/C (dose: 6.25 mg/kg/injection, schedule: Q01DX009 (ip), vehicle: Klucel (hydroxypropylcellulose) (HPC)) was 103 % of control, the T/C (dose: 12.5 mg/kg/injection, schedule: Q01DX009 (ip), vehicle: Klucel (hydroxypropylcellulose) (HPC)) was 112 % of control and the T/C (dose: 25.0 mg/kg/injection, schedule: Q01DX009 (ip), vehicle: Klucel (hydroxypropylcellulose) (HPC)) was 99 % of control. The T/C [1] was 105 % of control.

With CC(=O)C1=C(O)C(CC(C)C)NC1=O (stereo unspecified) the T/C (dose: 25.0 mg/kg/injection, schedule: Q01DX005 (ip), vehicle: Klucel (hydroxypropylcellulose) (HPC)) was 102 % of control, the T/C (dose: 50.0 mg/kg/injection, schedule: Q01DX005 (ip), vehicle: Klucel (hydroxypropylcellulose) (HPC)) was 102 % of control and the T/C (dose: 100.0 mg/kg/injection, schedule: Q01DX005 (ip), vehicle: Klucel (hydroxypropylcellulose) (HPC)) was 101 % of control.

Cn1c(=O)c2c(ncn2CCCl)n(C)c1=O was tested, and the T/C (dose: 12.5 mg/kg/injection, schedule: Q01DX005 (ip), vehicle: distilled water + Tween-80) was 100 % of control, the T/C (dose: 25.0 mg/kg/injection, schedule: Q01DX005 (ip), vehicle: distilled water + Tween-80) was 105 % of control and the T/C (dose: 50.0 mg/kg/injection, schedule: Q01DX005 (ip), vehicle: distilled water + Tween-80) was 105 % of control. The T/C (dose: 100.0 mg/kg/injection, schedule: Q01DX005 (ip), vehicle: distilled water + Tween-80) was 102 % of control.

In the case of CCOC(=O)/C=C/c1nc(C(=O)OCC)c(C)c(=O)[nH]1, the T/C (dose: 1.0 mg/kg/injection, schedule: Q01DX009 (ip), vehicle: other) was 120 % of control, the T/C (dose: 2.0 mg/kg/injection, schedule: Q01DX009 (ip), vehicle: other) was 99 % of control and the T/C (dose: 4.0 mg/kg/injection, schedule: Q01DX009 (ip), vehicle: other) was 99 % of control. The T/C (dose: 8.0 mg/kg/injection, schedule: Q01DX009 (ip), vehicle: other) was 107 % of control, the T/C (dose: 16.0 mg/kg/injection, schedule: Q01DX009 (ip), vehicle: other) was 104 % of control and 95 % of control and the T/C (dose: 32.0 mg/kg/injection, schedule: Q01DX009 (ip), vehicle: other) was 95 % of control. The T/C (dose: 64.0 mg/kg/injection, schedule: Q01DX009 (ip), vehicle: other) was 92 % of control, the T/C (dose: 128.0 mg/kg/injection, schedule: Q01DX009 (ip), vehicle: other) was 95 % of control and the T/C (dose: 200.0 mg/kg/injection, schedule: Q01DX009 (ip), vehicle: distilled water + Tween-80) was 99 % of control. For the same molecule, the T/C (dose: 256.0 mg/kg/injection, schedule: Q01DX009 (ip), vehicle: other) was 113 % of control and the T/C (dose: 400.0 mg/kg/injection, schedule: Q01DX009 (ip), vehicle: distilled water + Tween-80) was 100 % of control.

In the case of COc1cccc2c1C(=O)c1c(O)c3c(c(O)c1C2=O)C[C@@](O)(C(C)O)C[C@@H]3OC1CC(NCc2ccccc2)C(O)C(C)O1 (stereo partly specified), the T/C (dose: 0.78 mg/kg/injection, schedule: Q01DX009 (ip), vehicle: water) was 158 % of control, the T/C (dose: 1.56 mg/kg/injection, schedule: Q01DX009 (ip), vehicle: water) was 163 % of control and the T/C (dose: 3.13 mg/kg/injection, schedule: Q01DX009 (ip), vehicle: water) was 181 % of control and 194 % of control. For the same molecule, the T/C (dose: 6.25 mg/kg/injection, schedule: Q01DX009 (ip), vehicle: water) was 215 % of control and 226 % of control.

For O=C(N/C(=C\c1ccccc1)C(=O)N1CCN(c2ccccc2)CC1)c1ccccc1, the T/C [2] was 98 % of control, the T/C [3] was 98 % of control and the T/C [4] was 86 % of control.

In the case of CO/N=C(\C(O)C(C)O)C(OC)C1Cc2cc3cc(OC4CC(OC(C)=O)C(OC5CC(O)C(OC)C(C)O5)C(C)O4)cc(O)c3c(O)c2C(=O)C1OC1CC(OC2CC(OC3CC(C)(O)C(OC(=O)C(C)C)C(C)O3)C(O)C(C)O2)C(O)C(C)O1 (stereo unspecified), the T/C (dose: 0.13 mg/kg/injection, schedule: Q01DX005 (ip), vehicle: water) was 116 % of control, the T/C (dose: 0.25 mg/kg/injection, schedule: Q01DX005 (ip), vehicle: water) was 116 % of control and 124 % of control and the T/C (dose: 1.0 mg/kg/injection, schedule: Q01DX005 (ip), vehicle: water) was 160 % of control. The T/C (dose: 2.0 mg/kg/injection, schedule: Q01DX005 (ip), vehicle: water) was 163 % of control.

With COC(=O)C(C)(OCc1ccccc1)C(C)C1CO1 (stereo unspecified) the T/C [2] was 100 % of control, the T/C [3] was 115 % of control and the T/C [4] was 113 % of control.

For CSc1cccc(NC(=O)OCCOc2ccc(Cl)cc2)c1, the T/C [1] was 102 % of control, the T/C (dose: 100.0 mg/kg/injection, schedule: Q01DX009 (ip), vehicle: Klucel (hydroxypropylcellulose) (HPC)) was 100 % of control and the T/C (dose: 200.0 mg/kg/injection, schedule: Q01DX009 (ip), vehicle: Klucel (hydroxypropylcellulose) (HPC)) was 92 % of control.
